From US9409905B2, “Antibacterial compounds and methods for use” (PTC THERAPEUTICS, INC., priority 2011, dated 2016)
Converted amounts (≈) assume the structure as drawn.

Columns and labels:
E. coli 25922 = test: Antibacterial activity, microbroth dilution MIC (Table 1); type: cell-based, Escherichia coli; conditions: Escherichia coli; microbroth dilution; control Gram-negative E. coli 25922 strain; read-out: MIC, 25922
Procedure, shortened: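 Broth microdilution; endpoint = no macroscopic growth; value = lowest inhibiting concn, μg/mL.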

E. coli LZ3111 = test: Antibacterial activity, MIC, quinolone resistant strain (Table 2); type: cell-based; conditions: Escherichia coli, LZ3111, read-out: MIC LZ3111
Procedure, shortened: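 Microbroth dilution method; MIC (μg/mL) is the lowest drug concentration preventing macroscopically visible growth under test conditions.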

[1] = system: Escherichia coli (E. coli) BAS849; test: Antibacterial activity, microbroth dilution MIC (Table 1); type: cell-based; conditions: microbroth dilution, super sensitive Gram-negative E. coli BAS849, read-out: MIC, BAS849
Procedure, shortened: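 Each strain is exposed to test compound in a microbroth dilution series; visible growth is scored macroscopically, and the lowest growth-free concentration is recorded as MIC in μg/mL.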

[2] = system: Staphylococcus aureus (S. aureus) 29213; test: as above; type: cell-based; conditions: microbroth dilution, Gram-positive S. aureus 29213, read-out: MIC, 29213
Procedure, shortened: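 Using broth microdilution, MIC endpoints (μg/mL) mark where visible growth no longer appears; the panel spans sensitive and control Gram-negative strains plus a Gram-positive strain.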

Row | SMILES | MIC (E. coli 25922) [µg/mL] | MIC (E. coli LZ3111) [µg/mL] | MIC [1] [µg/mL] | MIC [2] [µg/mL]
1 | CCc1c(-c2ccc3c(c2)cc(CN2C[C@H]4CC[C@@H](N(Cc5ccccc5)Cc5ccccc5)[C@H]4C2)n3C)[nH]c(=O)c(C(=O)O)c1O [Cpd 281, 6-(2-(((3aR,4R,6aS)-4-(dibenzylamino)hexahydrocyclopenta[c]pyrrol-2(1H)-yl)methyl)-1-methyl-1H-indol-5-yl)-5-ethyl-4-hydroxy-2-oxo-1,2-dihydropyridine-3-carboxylic acid] | 12.5 to 150 (≈ 19.8 to 238 µM) | 12.5 to 150 (≈ 19.8 to 238 µM) | 12.5 to 150 (≈ 19.8 to 238 µM) | 12.5 to 150 (≈ 19.8 to 238 µM)
2 | CCc1c(-c2ccc3c(c2)cc(CN2C[C@H]4CCC[C@@H](N(Cc5ccccc5)Cc5ccccc5)[C@H]4C2)n3C)[nH]c(=O)c(C(=O)O)c1O [Cpd 283, 6-(2-(((3aR,4R,7aS)-4-(dibenzylamino)-1H-isoindol-2(3H,3aH,4H,5H,6H,7H,7aH)-yl)methyl)-1-methyl-1H-indol-5-yl)-5-ethyl-4-hydroxy-2-oxo-1,2-dihydropyridine-3-carboxylic acid] | 12.5 to 150 (≈ 19.4 to 233 µM) | 12.5 to 150 (≈ 19.4 to 233 µM) | 12.5 to 150 (≈ 19.4 to 233 µM) | 12.5 to 150 (≈ 19.4 to 233 µM)
3 | CCc1c(-c2ccc3c(c2)cc(CN2C[C@H]4C[C@@H](N(Cc5ccccc5)Cc5ccccc5)C[C@H]4C2)n3C)[nH]c(=O)c(C(=O)O)c1O [Cpd 286, 6-(2-(((3aR,5r,6aS)-5-(dibenzylamino)hexahydrocyclopenta[c]pyrrol-2(1H)-yl)methyl)-1-methyl-1H-indol-5-yl)-5-ethyl-4-hydroxy-2-oxo-1,2-dihydropyridine-3-carboxylic acid] | 12.5 to 150 (≈ 19.8 to 238 µM) | 12.5 to 150 (≈ 19.8 to 238 µM) | 12.5 to 150 (≈ 19.8 to 238 µM) | 12.5 to 150 (≈ 19.8 to 238 µM)
4 | CCc1c(-c2ccc3c(c2)cc(CNCc2ccc(F)cc2)n3C)[nH]c(=O)c(C(=O)O)c1O [Cpd 292, 5-ethyl-6-(2-((4-fluorobenzylamino)methyl)-1-methyl-1H-indol-5-yl)-4-hydroxy-2-oxo-1,2-dihydropyridine-3-carboxylic acid] | 1 to 3.5 (≈ 2.22 to 7.79 µM) | 12.5 to 150 (≈ 27.8 to 334 µM) | < 1 | 3.5 to 12.5 (≈ 7.79 to 27.8 µM)
5 | CCc1c(-c2ccc3c(c2)cc(CNCc2ccccc2OC)n3C)[nH]c(=O)c(C(=O)O)c1O [Cpd 293, 5-ethyl-4-hydroxy-6-(2-((2-methoxybenzylamino)methyl)-1-methyl-1H-indol-5-yl)-2-oxo-1,2-dihydropyridine-3-carboxylic acid] | < 1 | 12.5 to 150 (≈ 27.1 to 325 µM) | < 1 | 3.5 to 12.5 (≈ 7.58 to 27.1 µM)
6 | CCc1c(-c2ccc3c(c2)cc(CNCc2cccc(C)c2)n3C)[nH]c(=O)c(C(=O)O)c1O [Cpd 294, 5-ethyl-4-hydroxy-6-(1-methyl-2-((3-methylbenzylamino)methyl)-1H-indol-5-yl)-2-oxo-1,2-dihydropyridine-3-carboxylic acid] | < 1 | 12.5 to 150 (≈ 28.1 to 337 µM) | < 1 | 1 to 3.5 (≈ 2.24 to 7.86 µM)
7 | CCc1c(-c2ccc3c(c2)cc(CNCc2ccccc2C)n3C)[nH]c(=O)c(C(=O)O)c1O [Cpd 295, 5-ethyl-4-hydroxy-6-(1-methyl-2-((2-methylbenzylamino)methyl)-1H-indol-5-yl)-2-oxo-1,2-dihydropyridine-3-carboxylic acid] | 3.5 to 12.5 (≈ 7.86 to 28.1 µM) | 12.5 to 150 (≈ 28.1 to 337 µM) | < 1 | 1 to 3.5 (≈ 2.24 to 7.86 µM)
8 | CCc1c(-c2ccc3c(c2)cc(CNCc2cccc(OC)c2)n3C)[nH]c(=O)c(C(=O)O)c1O [Cpd 296, 5-ethyl-4-hydroxy-6-(2-((3-methoxybenzylamino)methyl)-1-methyl-1H-indol-5-yl)-2-oxo-1,2-dihydropyridine-3-carboxylic acid] | < 1 | 12.5 to 150 (≈ 27.1 to 325 µM) | < 1 | 3.5 to 12.5 (≈ 7.58 to 27.1 µM)
9 | CCc1c(-c2ccc3c(c2)cc(CNCc2ccc(C)cc2)n3C)[nH]c(=O)c(C(=O)O)c1O [Cpd 297, 5-ethyl-4-hydroxy-6-(1-methyl-2-((4-methylbenzylamino)methyl)-1H-indol-5-yl)-2-oxo-1,2-dihydropyridine-3-carboxylic acid] | < 1 | 12.5 to 150 (≈ 28.1 to 337 µM) | < 1 | 1 to 3.5 (≈ 2.24 to 7.86 µM)
10 | CCc1c(-c2ccc3c(c2)cc(CNCc2cccc(F)c2)n3C)[nH]c(=O)c(C(=O)O)c1O [Cpd 298, 5-ethyl-6-(2-((3-fluorobenzylamino)methyl)-1-methyl-1H-indol-5-yl)-4-hydroxy-2-oxo-1,2-dihydropyridine-3-carboxylic acid] | 1 to 3.5 (≈ 2.22 to 7.79 µM) | 12.5 to 150 (≈ 27.8 to 334 µM) | < 1 | 1 to 3.5 (≈ 2.22 to 7.79 µM)
11 | CCc1c(-c2ccc3c(c2)cc(CNCc2ccccc2F)n3C)[nH]c(=O)c(C(=O)O)c1O [Cpd 299, 5-ethyl-6-(2-((2-fluorobenzylamino)methyl)-1-methyl-1H-indol-5-yl)-4-hydroxy-2-oxo-1,2-dihydropyridine-3-carboxylic acid] | 1 to 3.5 (≈ 2.22 to 7.79 µM) | 12.5 to 150 (≈ 27.8 to 334 µM) | < 1 | 1 to 3.5 (≈ 2.22 to 7.79 µM)
12 | CCc1c(-c2ccc3c(c2)cc(CN(C)CCOC)n3C)[nH]c(=O)c(C(=O)O)c1O [Cpd 300, 5-ethyl-4-hydroxy-6-(2-(((2-methoxyethyl)(methyl)amino)methyl)-1-methyl-1H-indol-5-yl)-2-oxo-1,2-dihydropyridine-3-carboxylic acid] | 3.5 to 12.5 (≈ 8.46 to 30.2 µM) | 12.5 to 150 (≈ 30.2 to 363 µM) | < 1 | 12.5 to 150 (≈ 30.2 to 363 µM)
13 | CCc1c(-c2ccc3c(c2)cc(CNCC2CCCCCC2)n3C)[nH]c(=O)c(C(=O)O)c1O [Cpd 301, 6-(2-((cycloheptylmethylamino)methyl)-1-methyl-1H-indol-5-yl)-5-ethyl-4-hydroxy-2-oxo-1,2-dihydropyridine-3-carboxylic acid] | 12.5 to 150 (≈ 27.7 to 332 µM) | 12.5 to 150 (≈ 27.7 to 332 µM) | < 1 | 3.5 to 12.5 (≈ 7.75 to 27.7 µM)
14 | CCc1c(-c2ccc3c(c2)cc(CN(C)CCN(C)C)n3C)[nH]c(=O)c(C(=O)O)c1O [Cpd 303, 6-(2-(((2-(dimethylamino)ethyl)(methyl)amino)methyl)-1-methyl-1H-indol-5-yl)-5-ethyl-4-hydroxy-2-oxo-1,2-dihydropyridine-3-carboxylic acid] | 3.5 to 12.5 (≈ 8.21 to 29.3 µM) | 12.5 to 150 (≈ 29.3 to 352 µM) | < 1 | 12.5 to 150 (≈ 29.3 to 352 µM)
15 | CCc1c(-c2ccc3c(c2)cc(C(C)(C)N2CCCC2)n3C)[nH]c(=O)c(C(=O)O)c1O [Cpd 307, 5-ethyl-4-hydroxy-6-(1-methyl-2-(2-(pyrrolidin-1-yl)propan-2-yl)-1H-indol-5-yl)-2-oxo-1,2-dihydropyridine-3-carboxylic acid] | 12.5 to 150 (≈ 29.5 to 354 µM) | 12.5 to 150 (≈ 29.5 to 354 µM) | < 1 | 1 to 3.5 (≈ 2.36 to 8.26 µM)
16 | CCc1c(-c2ccc3c(c2)cc(C(C)(C)N(C)C)n3C)[nH]c(=O)c(C(=O)O)c1O [Cpd 308, 6-(2-(2-(dimethylamino)propan-2-yl)-1-methyl-1H-indol-5-yl)-5-ethyl-4-hydroxy-2-oxo-1,2-dihydropyridine-3-carboxylic acid] | 12.5 to 150 (≈ 31.4 to 377 µM) | 12.5 to 150 (≈ 31.4 to 377 µM) | < 1 | 1 to 3.5 (≈ 2.52 to 8.81 µM)
17 | Cn1c(CN2CCCC2)cc2cc(-c3[nH]c(=O)c(C(=O)O)c(O)c3-c3ccc(F)cc3)ccc21 [Cpd 309, 5-(4-fluorophenyl)-4-hydroxy-6-(1-methyl-2-(pyrrolidin-1-ylmethyl)-1H-indol-5-yl)-2-oxo-1,2-dihydropyridine-3-carboxylic acid] | 3.5 to 12.5 (≈ 7.58 to 27.1 µM) | 12.5 to 150 (≈ 27.1 to 325 µM) | < 1 | 12.5 to 150 (≈ 27.1 to 325 µM)
18 | CN(C)Cc1cc2cc(-c3[nH]c(=O)c(C(=O)O)c(O)c3-c3ccc(F)cc3)ccc2n1C [Cpd 310, 6-(2-((dimethylamino)methyl)-1-methyl-1H-indol-5-yl)-5-(4-fluorophenyl)-4-hydroxy-2-oxo-1,2-dihydropyridine-3-carboxylic acid] | 3.5 to 12.5 (≈ 8.04 to 28.7 µM) | 12.5 to 150 (≈ 28.7 to 344 µM) | < 1 | 12.5 to 150 (≈ 28.7 to 344 µM)
